Experimental findings from ChEMBL document CHEMBL2417434, “The first synthesis of natural disulfide bruguiesulfurol and biological evaluation of its derivatives as a novel scaffold for PTP1B inhibitors” (Bioorg Med Chem Lett, 2013) are described below.

Assay [1] concerns the target T1, Tyrosine-protein phosphatase non-receptor type 1 (Homo sapiens, UniProt P18031).
T1 sequence (P18031 whole entry): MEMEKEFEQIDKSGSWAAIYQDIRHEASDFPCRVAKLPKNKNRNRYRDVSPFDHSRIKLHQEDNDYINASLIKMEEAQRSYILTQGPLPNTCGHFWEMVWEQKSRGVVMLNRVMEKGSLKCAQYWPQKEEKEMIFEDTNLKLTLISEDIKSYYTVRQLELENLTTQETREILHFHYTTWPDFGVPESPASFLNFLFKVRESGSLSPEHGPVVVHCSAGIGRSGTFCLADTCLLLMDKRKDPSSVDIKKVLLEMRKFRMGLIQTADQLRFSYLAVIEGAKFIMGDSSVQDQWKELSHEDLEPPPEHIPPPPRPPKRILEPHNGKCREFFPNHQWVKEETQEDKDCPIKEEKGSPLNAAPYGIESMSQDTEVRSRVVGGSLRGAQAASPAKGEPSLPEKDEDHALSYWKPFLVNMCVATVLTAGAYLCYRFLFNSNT
As to the kind of experiment: Inhibition of PTP1B (unknown origin).

Assay [2] deals with Tyrosine-protein phosphatase non-receptor type 6 (Homo sapiens, UniProt P29350). The assay can be described thus: Inhibition of SHP1 (unknown origin).
In assay [3] the target is T2, Tyrosine-protein phosphatase non-receptor type 2 (Homo sapiens, UniProt P17706).
T2 sequence (P17706 whole entry): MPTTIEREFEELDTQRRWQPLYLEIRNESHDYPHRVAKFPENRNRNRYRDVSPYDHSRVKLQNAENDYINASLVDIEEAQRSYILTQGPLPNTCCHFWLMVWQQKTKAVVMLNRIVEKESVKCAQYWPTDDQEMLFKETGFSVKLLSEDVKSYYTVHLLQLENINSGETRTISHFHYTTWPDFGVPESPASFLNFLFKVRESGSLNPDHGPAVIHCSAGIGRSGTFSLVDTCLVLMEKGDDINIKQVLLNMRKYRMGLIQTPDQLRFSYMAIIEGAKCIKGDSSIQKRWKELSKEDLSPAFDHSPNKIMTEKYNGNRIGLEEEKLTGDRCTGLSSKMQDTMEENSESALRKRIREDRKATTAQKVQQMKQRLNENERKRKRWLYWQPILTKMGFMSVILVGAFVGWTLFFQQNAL
The assay can be described thus: Inhibition of TCPTP (unknown origin).

The target in assay [4] is Receptor-type tyrosine-protein phosphatase F (Homo sapiens, UniProt P10586). The assay can be described thus: Inhibition of LAR (unknown origin).
The target of assay [5] is T3, Tyrosine-protein phosphatase non-receptor type 11 (Homo sapiens, UniProt Q06124).
T3 sequence (Q06124 whole entry): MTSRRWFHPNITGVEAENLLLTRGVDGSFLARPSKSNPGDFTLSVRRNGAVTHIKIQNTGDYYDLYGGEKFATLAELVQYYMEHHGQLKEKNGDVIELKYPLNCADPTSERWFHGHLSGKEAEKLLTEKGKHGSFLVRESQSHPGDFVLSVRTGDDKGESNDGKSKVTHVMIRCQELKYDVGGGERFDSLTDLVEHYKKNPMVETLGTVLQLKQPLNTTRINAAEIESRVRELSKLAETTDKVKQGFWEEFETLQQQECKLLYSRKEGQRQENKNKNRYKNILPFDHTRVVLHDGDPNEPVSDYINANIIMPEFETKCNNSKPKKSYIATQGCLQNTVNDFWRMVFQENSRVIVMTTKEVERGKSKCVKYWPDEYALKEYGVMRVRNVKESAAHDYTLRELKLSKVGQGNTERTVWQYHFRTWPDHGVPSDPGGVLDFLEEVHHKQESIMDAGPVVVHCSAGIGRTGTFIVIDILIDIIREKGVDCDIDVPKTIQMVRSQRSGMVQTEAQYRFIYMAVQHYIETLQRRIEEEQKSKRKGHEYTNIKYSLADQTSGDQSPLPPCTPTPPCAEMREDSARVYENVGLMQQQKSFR
As to the kind of experiment: Inhibition of SHP2 (unknown origin).

Sequence of Tyrosine-protein phosphatase non-receptor type 6 (P29350 whole entry): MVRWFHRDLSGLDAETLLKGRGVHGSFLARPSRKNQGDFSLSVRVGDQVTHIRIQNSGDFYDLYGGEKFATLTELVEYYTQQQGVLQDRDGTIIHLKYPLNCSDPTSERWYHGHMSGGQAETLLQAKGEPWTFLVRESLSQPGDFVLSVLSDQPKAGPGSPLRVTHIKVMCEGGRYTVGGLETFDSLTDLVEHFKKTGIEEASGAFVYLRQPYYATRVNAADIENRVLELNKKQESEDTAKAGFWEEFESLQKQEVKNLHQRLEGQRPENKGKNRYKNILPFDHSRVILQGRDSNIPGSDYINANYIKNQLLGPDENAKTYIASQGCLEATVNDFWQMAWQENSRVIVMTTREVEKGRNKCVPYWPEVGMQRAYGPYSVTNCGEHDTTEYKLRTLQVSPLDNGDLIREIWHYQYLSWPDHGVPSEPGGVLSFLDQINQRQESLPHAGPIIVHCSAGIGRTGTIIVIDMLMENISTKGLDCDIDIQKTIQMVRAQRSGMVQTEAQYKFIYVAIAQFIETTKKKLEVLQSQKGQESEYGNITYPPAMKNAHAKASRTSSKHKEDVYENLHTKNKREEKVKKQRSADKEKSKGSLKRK
Sequence of Receptor-type tyrosine-protein phosphatase F (P10586 whole entry): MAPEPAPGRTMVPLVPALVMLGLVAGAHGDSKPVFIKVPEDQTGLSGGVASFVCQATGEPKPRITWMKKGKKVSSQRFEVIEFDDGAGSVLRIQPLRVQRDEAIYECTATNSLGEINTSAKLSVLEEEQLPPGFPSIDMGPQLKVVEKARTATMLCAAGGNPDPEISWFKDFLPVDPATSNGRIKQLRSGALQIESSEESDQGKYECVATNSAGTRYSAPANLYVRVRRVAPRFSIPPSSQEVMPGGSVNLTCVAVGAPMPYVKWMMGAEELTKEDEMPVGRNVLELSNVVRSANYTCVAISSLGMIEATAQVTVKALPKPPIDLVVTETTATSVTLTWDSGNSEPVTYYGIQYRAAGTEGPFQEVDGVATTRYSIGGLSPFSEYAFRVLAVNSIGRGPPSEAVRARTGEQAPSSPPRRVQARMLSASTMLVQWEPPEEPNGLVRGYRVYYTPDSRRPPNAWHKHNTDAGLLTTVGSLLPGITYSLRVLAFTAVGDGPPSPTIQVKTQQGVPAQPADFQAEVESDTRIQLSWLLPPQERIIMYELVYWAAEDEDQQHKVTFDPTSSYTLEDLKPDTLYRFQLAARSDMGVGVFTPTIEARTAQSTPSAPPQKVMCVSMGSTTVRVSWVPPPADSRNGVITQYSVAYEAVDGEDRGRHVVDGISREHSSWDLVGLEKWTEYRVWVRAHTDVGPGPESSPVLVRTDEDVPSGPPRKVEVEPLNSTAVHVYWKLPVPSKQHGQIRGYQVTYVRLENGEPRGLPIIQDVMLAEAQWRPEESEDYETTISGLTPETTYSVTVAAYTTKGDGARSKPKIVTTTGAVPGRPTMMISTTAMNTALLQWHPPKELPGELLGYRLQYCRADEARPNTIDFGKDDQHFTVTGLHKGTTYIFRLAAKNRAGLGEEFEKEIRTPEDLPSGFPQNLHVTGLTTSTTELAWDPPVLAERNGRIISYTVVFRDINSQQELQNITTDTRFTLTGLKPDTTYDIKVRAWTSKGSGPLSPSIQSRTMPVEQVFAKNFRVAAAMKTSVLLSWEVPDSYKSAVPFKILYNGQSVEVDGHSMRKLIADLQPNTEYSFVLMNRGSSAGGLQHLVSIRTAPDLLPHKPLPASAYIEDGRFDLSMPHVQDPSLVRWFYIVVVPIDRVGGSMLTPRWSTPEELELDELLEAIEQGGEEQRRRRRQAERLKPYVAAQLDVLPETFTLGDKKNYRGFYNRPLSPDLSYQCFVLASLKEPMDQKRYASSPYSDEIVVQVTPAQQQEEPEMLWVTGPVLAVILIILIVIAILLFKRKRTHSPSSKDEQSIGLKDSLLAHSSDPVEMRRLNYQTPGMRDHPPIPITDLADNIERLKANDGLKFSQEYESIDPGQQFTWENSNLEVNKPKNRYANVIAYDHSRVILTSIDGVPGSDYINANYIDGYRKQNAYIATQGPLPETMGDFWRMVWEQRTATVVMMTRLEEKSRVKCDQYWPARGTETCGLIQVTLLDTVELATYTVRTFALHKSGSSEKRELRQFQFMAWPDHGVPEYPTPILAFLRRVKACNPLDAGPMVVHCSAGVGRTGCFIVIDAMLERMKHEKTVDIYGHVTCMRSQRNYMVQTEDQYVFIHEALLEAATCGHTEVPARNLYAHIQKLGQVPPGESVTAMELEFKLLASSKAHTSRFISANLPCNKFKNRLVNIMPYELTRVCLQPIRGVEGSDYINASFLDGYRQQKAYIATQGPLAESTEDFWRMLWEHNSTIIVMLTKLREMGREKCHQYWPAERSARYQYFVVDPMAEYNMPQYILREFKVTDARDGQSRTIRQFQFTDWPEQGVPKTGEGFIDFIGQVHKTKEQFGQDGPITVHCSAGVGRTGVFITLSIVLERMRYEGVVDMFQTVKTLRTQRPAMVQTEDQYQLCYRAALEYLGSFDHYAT

What is called IC50 is the concentration needed to halve the response being measured. As to `O=C(OC1CSS(=O)(=O)C1)c1cc(Br)ccc1Br` (configuration not stated), the IC50 entry in assay [1] was “Not Active”.

`O=C(OC1CSS(=O)(=O)C1)c1cc2ccccc2[nH]1` (configuration not stated): in assay [1], the IC50 entry is given as “Not Active”.

As to `O=C(Cc1ccc(Br)cc1)OC1CSS(=O)(=O)C1` (configuration not stated), the IC50 result in assay [1] was “Not Active”.

As to `O=C(OC1CS[S+]([O-])C1)c1ccc(Br)cc1` (configuration not stated), the IC50 entry in assay [1] was “Not Active”.

Take `O=C(OC1CS[S+]([O-])C1)c1ccccc1Br` (configuration not stated): in assay [1], the IC50 result was “Not Active”.

As for `O=C(OC1CS[S+]([O-])C1)c1cccc(Br)c1` (configuration not stated), the IC50 result was “Not Active” in assay [2]; “Not Active” in assay [3]; “Not Active” in assay [4]; 28 µM in assay [1] (read-out: IC50); “Not Active” in assay [5].

Turning to `O=C(OC1CS[S+]([O-])C1)c1ccc(F)cc1` (configuration not stated), the IC50 result in assay [1] is “Not Active”.

`O=C(OC1CS[S+]([O-])C1)c1ccc(I)cc1` (configuration not stated): the IC50 entry in assay [2] is “Not Active”; in assay [3] (read-out: IC50), 33 µM; in assay [4], “Not Active”; in assay [1] (read-out: IC50) it was 22.4 µM; in assay [5] it was “Not Active”.

Regarding `O=C(OC1CS[S+]([O-])C1)c1ccccc1I` (configuration not stated), the IC50 entry in assay [2] is “Not Active”; in assay [3] (read-out: IC50), 36.8 µM; in assay [4] it was “Not Active”; in assay [1] (read-out: IC50), 29.7 µM; in assay [5], “Not Active”.

For the compound `O=C(OC1CS[S+]([O-])C1)c1cc(Br)ccc1Br` (configuration not stated), the IC50 entry was “Not Active” in assay [2]; 11.1 µM in assay [3] (read-out: IC50); “Not Active” in assay [4]; 4.54 µM in assay [1] (read-out: IC50); “Not Active” in assay [5].

Turning to `O=C(OC1CS[S+]([O-])C1)c1cc2ccccc2[nH]1` (configuration not stated), the IC50 entry in assay [2] is “Not Active”; in assay [3] (read-out: IC50) it was 52.6 µM; in assay [4], “Not Active”; in assay [1] (read-out: IC50) it was 31.4 µM; in assay [5], “Not Active”.

Turning to `O=C(Cc1ccc(Br)cc1)OC1CS[S+]([O-])C1` (configuration not stated), the IC50 entry is “Not Active” in assay [2]; “Not Active” in assay [3]; “Not Active” in assay [4]; 45 µM in assay [1] (read-out: IC50); “Not Active” in assay [5].

With `O=C(OC1CSSC1)c1ccc(Cl)cc1`, the IC50 result in assay [1] is reported as “Not Active”.

Turning to `O=C(OC1CSSC1)c1ccc(I)cc1`, the IC50 entry in assay [2] was “Not Active”; in assay [3] (read-out: IC50), 34.1 µM; in assay [4], “Not Active”; in assay [1] (read-out: IC50), 33.4 µM; in assay [5] it was “Not Active”.

On to `O=C(OC1CSSC1)c1ccccc1I`, for which the IC50 entry is “Not Active” in assay [2]; 42.1 µM in assay [3] (read-out: IC50); 20.4 µM in assay [4] (read-out: IC50); 48.2 µM in assay [1] (read-out: IC50); “Not Active” in assay [5].

In the case of `O=C(OC1CSSC1)c1cc(Br)ccc1Br`, the IC50 in assay [2] (read-out: IC50) is 10.9 µM; in assay [3] (read-out: IC50) it was 20.4 µM; in assay [4] it was “Not Active”; in assay [1] (read-out: IC50), 25.6 µM; in assay [5], “Not Active”.

Regarding `NS(=O)(=O)c1ccc(C(=O)OC2CSSC2)cc1`, the IC50 in assay [2] (read-out: IC50) is 14 µM; in assay [3] (read-out: IC50), 40.7 µM; in assay [4], “Not Active”; in assay [1] (read-out: IC50) it was 24.9 µM; in assay [5] (read-out: IC50), 13.4 µM.

In the case of `O=C(OC1CSSC1)c1ccc([N+](=O)[O-])cc1`, the IC50 result in assay [2] was “Not Active”; in assay [3] (read-out: IC50), 37.4 µM; in assay [4] it was “Not Active”; in assay [1] (read-out: IC50), 22.6 µM; in assay [5], “Not Active”.

As for `O=C(Cc1ccc(Br)cc1)OC1CSSC1`, the concentration for half-maximal inhibition (IC50) entry in assay [1] is “Not Active”.

On to `O=C(CCc1ccc(Br)cc1)OC1CSSC1`, for which the IC50 result in assay [1] is “Not Active”.

For `O=C(OC1CSSC1)c1cc([N+](=O)[O-])cc([N+](=O)[O-])c1`, the IC50 in assay [2] (read-out: IC50) was 24.4 µM; in assay [3] (read-out: IC50) it was 27.3 µM; in assay [4], “Not Active”; in assay [1] (read-out: IC50), 14.8 µM; in assay [5] (read-out: IC50), 13.8 µM.

Consider `O=C(OC1CSSC1)c1ccccc1`, for which, in assay [1], the IC50 entry was “Not Active”.

Take `COc1ccc(C(=O)OC2CSSC2)c(OC)c1`: the IC50 entry in assay [1] was “Not Active”.

Take `CC(=O)OC1CSSC1`: the IC50 result in assay [1] was “Not Active”.

As to `O=C(OC1CSSC1)c1ccoc1`, the 50% inhibitory concentration (IC50) in assay [2] (read-out: IC50) is 17.9 µM; in assay [3] it was “Not Active”; in assay [4], “Not Active”; in assay [1] (read-out: IC50) it was 78.2 µM; in assay [5] (read-out: IC50) it was 21.4 µM.

On to `O=C(OC1CSSC1)c1ccco1`, for which the IC50 in assay [2] (read-out: IC50) is 15.8 µM; in assay [3] (read-out: IC50) it was 75.4 µM; in assay [4] it was “Not Active”; in assay [1] (read-out: IC50), 35.2 µM; in assay [5] (read-out: IC50), 22.3 µM.

As to `O=C(OC1CSSC1)c1ccc[nH]1`, the IC50 entry in assay [1] is on record as “Not Active”.

Consider `O=C(OC1CSSC1)c1cc2ccccc2[nH]1`, for which the IC50 entry in assay [2] is “Not Active”; in assay [3] (read-out: IC50), 35.8 µM; in assay [4] it was “Not Active”; in assay [1] (read-out: IC50), 24.1 µM; in assay [5], “Not Active”.

`O=C(OC1CSS(=O)(=O)C1)c1ccc(Br)cc1` (configuration not stated): in assay [1], the IC50 result was “Not Active”.

Take `O=C(OC1CSS(=O)(=O)C1)c1ccccc1Br` (configuration not stated): the IC50 result in assay [1] is on record as “Not Active”.

On to `O=C(OC1CSS(=O)(=O)C1)c1cccc(Br)c1` (configuration not stated), for which the half-maximal inhibitory concentration (IC50) entry in assay [2] is “Not Active”; in assay [3] it was “Not Active”; in assay [4] it was “Not Active”; in assay [1] (read-out: IC50), 29 µM; in assay [5] it was “Not Active”.

Turning to `O=C(OC1CSS(=O)(=O)C1)c1ccc(F)cc1` (configuration not stated), the IC50 result in assay [1] is listed as “Not Active”.

Take `O=C(OC1CSS(=O)(=O)C1)c1ccc(I)cc1` (configuration not stated): in assay [1], the IC50 entry is given as “Not Active”.

Take `O=C(OC1CSS(=O)(=O)C1)c1ccccc1I` (configuration not stated): the IC50 entry in assay [1] is reported as “Not Active”.

`O=C(OC1CSSC1)c1ccc(Br)cc1`: the IC50 result was “Not Active” in assay [2]; 34 µM in assay [3] (read-out: IC50); 34.6 µM in assay [4] (read-out: IC50); 11 µM in assay [1] (read-out: IC50); “Not Active” in assay [5].

For `O=C(OC1CSSC1)c1ccccc1Br`, in assay [1], the IC50 result was “Not Active”.

Turning to `O=C(OC1CSSC1)c1cccc(Br)c1`, in assay [1], the half-inhibitory concentration (IC50) result is given as “Not Active”.

Turning to `O=C(OC1CSSC1)c1ccc(F)cc1`, the IC50 result in assay [1] is listed as “Not Active”.

Regarding `O=S1(=O)C[C@H](O)CS1` [BRUGUIESULFUROL], in assay [1] (read-out: IC50), the IC50 was determined as 17.5 µM.
